This is an account of results in patent US8309550B2, “Kinase inhibitors and their use as pharmaceutical agents” (Shanghai Genomics, Inc., priority 2011, dated 2012).

What all share (format): biochemical
One experiment concerns the target T1, CDK5/p35 (Homo sapiens, UniProt Q00535).
T1 construct: purchased Invitrogen PV3000
Nature of the experiment: Z'-LYTE kinase assay CDK5/p35. Conditions: read-out: Kinase inhibition, IC50 CDK5/p35. On the procedure:
(§1) Kinase assays. The compounds from the example above were tested for their ability to inhibit kinases. Recombinant human CDK2/cyclinA (PV3267), CDK1/cyclinB (PV3292), CDK5/p35 (PV3000) and Aurora A (PV3612) were purchased from Invitrogen (Carlsbad, Calif., USA). Kinase dosage and Z′-LYTE™ substrate for each kinase assay is as follows: CDK2/cyclinA-8 ng/reaction, Ser/Thr 12 Peptide; CDK1/cyclinB-0.8 ng/reaction, Ser/Thr 12 Peptide, CDK5/p35-0.8 ng/reaction, Ser/Thr 12 Peptide, and Aurora A-16 ng/reaction, Ser/Thr 1 Peptide. All enzymatic assays were performed using Z′-LYTE™ Kinase Assay Kits and were carried out following protocols provided by Invitrogen. To prepare stock solutions, compounds were dissolved at 10 mM in 100% DMSO and stored at 4° C. in amber glass vials. Enzyme reactions were initiated by adding recombinant enzyme and Z′-LYTE™ Ser/Thr peptide substrate and ATP mixture to 384-well plates containing diluted test compounds. Kinase and corresponding peptide substrate were incubated for 1 hr at room temperature in the presence of varying amounts of test compound with reaction buffer (20 μM ATP, […] [pH 7.5], 5 mM MgCl2, 0.5 mM EGTA, 0.005% Brij-35). Development buffer was added and incubated for another one hour at room temperature. Reactions were terminated by addition of stop buffer, and fluorescence emission intensity ratio 445 nm/520 nm (excited at 400 nm) was quantified by VICTOR-3 Multilabel Reader (Perkin-Elmer, Waltham, Mass., USA). Phosphorylation was calculated from the emission ratio. IC50 was determined using Sigmoid curve-fitting software Origin 6.0 (MicroCal, LLC, Northampton, Mass., USA).

A further experiment addresses Aurora B (Homo sapiens, UniProt Q96GD4). Nature of the experiment: Kinase assay Aurora B (Table I). Conditions: read-out: Kinase inhibition, IC50 Aurora B. On the procedure: [The source words this procedure for another target and reports this target under the same test.] as §1
The next experiment deals with T2, Aurora A (Homo sapiens, UniProt O14965).
T2 construct: purchased Invitrogen PV3612
T2 sequence (O14965 1-403): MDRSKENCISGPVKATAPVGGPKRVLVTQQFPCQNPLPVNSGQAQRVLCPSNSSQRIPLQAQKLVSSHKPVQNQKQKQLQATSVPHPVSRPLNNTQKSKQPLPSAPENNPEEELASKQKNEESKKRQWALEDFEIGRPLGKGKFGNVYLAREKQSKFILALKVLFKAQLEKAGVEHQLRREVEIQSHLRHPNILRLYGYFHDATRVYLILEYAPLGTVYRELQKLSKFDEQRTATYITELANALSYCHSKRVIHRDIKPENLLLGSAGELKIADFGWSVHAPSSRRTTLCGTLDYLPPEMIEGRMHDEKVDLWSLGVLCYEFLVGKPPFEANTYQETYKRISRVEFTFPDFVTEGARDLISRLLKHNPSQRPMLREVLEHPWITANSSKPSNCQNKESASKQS
The experiment in a line: Z'-LYTE kinase assay Aurora A. The following applies: read-out: Kinase inhibition, IC50 Aurora A. On the procedure:
as §1

For another experiment, the target named is CDK9T1 (Homo sapiens, UniProt P50750). The experiment in a line: Kinase assay CDK9T1 (Table I). Conditions: read-out: Kinase inhibition, IC50 CDK9T1. On the procedure:
[The source words this procedure for another target and reports this target under the same test.] as §1

Another experiment concerns the target T3, CDK2/cyclinA (Homo sapiens, UniProt P24941).
T3 construct: purchased Invitrogen PV3267
Nature of the experiment: Z'-LYTE kinase assay CDK2/cyclinA. Conditions: read-out: Kinase inhibition, IC50 CDK2A. On the procedure: as §1

The next experiment concerns the target T4, CDK1/cyclinB (Homo sapiens, UniProt P06493).
T4 construct: purchased Invitrogen PV3292
The experiment in a line: Z'-LYTE kinase assay CDK1/cyclinB. Conditions: read-out: Kinase inhibition, IC50 CDK1B. On the procedure: as §1

Sequence of CDK9T1 (P50750 whole entry): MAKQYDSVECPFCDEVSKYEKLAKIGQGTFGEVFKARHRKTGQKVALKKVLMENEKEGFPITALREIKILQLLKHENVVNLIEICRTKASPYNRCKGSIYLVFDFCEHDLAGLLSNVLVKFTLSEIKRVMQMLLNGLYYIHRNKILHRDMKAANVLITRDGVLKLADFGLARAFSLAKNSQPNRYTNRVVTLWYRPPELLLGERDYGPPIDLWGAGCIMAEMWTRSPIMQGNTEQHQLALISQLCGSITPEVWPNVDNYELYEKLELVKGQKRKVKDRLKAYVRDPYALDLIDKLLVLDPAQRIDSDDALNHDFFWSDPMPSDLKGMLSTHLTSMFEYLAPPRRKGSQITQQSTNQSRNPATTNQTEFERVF
Sequence of CDK9T1 (O60563 whole entry partner): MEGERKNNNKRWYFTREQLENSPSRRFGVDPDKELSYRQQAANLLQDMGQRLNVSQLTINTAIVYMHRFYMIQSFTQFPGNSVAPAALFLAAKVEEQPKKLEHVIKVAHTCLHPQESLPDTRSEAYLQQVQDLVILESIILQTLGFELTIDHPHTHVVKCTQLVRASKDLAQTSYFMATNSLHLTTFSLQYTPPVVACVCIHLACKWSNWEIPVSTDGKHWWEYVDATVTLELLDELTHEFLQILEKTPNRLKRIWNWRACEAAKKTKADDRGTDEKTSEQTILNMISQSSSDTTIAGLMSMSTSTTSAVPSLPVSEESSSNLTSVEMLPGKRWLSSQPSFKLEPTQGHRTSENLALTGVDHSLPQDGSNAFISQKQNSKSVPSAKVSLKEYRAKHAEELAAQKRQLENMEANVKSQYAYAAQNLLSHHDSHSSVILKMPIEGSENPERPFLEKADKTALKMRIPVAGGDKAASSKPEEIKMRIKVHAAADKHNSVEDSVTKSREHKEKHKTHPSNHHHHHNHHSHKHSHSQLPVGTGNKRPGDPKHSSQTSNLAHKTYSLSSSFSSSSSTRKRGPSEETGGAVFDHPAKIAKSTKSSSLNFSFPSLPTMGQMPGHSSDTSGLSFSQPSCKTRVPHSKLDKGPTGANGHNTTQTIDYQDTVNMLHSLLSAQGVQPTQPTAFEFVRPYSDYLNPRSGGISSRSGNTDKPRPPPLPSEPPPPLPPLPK
Sequence of Aurora B (Q96GD4 whole entry): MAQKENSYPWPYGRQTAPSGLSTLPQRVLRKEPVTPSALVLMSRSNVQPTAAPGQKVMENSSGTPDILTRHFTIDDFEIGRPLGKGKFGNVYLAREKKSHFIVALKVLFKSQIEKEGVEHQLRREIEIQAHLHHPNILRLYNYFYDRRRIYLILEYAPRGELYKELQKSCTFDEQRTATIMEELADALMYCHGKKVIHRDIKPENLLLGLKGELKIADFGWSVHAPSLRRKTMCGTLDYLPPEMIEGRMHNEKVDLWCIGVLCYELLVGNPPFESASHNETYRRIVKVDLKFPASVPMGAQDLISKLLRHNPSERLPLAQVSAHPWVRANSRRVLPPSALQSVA
T4 sequence (P06493 whole entry): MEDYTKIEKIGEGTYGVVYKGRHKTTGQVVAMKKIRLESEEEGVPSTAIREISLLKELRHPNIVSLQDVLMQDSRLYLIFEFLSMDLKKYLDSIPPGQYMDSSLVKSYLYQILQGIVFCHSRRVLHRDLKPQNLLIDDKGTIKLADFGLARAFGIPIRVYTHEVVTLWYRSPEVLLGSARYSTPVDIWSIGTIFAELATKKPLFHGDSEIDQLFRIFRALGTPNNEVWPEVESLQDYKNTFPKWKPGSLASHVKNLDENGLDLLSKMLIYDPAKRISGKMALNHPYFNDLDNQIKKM
T4 sequence (P14635 whole entry partner): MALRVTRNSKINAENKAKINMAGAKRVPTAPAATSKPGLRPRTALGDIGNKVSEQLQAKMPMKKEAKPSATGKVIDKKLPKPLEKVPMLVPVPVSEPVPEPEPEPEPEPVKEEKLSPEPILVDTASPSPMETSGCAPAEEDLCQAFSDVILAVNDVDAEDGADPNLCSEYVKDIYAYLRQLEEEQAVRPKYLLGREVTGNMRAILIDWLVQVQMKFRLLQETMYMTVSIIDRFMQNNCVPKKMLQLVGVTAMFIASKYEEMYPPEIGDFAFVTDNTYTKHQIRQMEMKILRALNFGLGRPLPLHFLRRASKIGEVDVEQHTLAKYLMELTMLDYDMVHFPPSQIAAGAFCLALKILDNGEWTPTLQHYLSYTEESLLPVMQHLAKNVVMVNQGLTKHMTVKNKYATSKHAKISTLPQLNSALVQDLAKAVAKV
T1 sequence (Q00535 whole entry): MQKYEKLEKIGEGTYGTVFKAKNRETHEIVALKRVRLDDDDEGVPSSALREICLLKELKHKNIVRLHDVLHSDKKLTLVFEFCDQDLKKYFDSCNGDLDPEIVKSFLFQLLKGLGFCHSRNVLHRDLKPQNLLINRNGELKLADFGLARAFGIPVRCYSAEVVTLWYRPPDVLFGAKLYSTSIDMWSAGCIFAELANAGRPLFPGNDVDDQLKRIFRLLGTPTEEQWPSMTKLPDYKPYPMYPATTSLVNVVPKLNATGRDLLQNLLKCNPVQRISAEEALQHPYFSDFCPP
T1 sequence (Q15078 whole entry partner): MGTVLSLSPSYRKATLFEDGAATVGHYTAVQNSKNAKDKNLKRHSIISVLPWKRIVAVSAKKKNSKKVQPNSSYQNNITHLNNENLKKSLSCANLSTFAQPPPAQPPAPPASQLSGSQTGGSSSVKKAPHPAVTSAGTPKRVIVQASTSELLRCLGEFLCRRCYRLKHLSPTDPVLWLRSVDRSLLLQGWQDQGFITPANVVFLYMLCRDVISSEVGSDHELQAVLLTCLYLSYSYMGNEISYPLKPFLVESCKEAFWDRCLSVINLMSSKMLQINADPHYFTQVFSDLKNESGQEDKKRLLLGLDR

Consider `CCn1cc(-c2ccnc(Nc3ccc(O)cc3C)n2)c2ccccc21` [Compound 8, 4-[4-(1-Ethyl-1H-indol-3-yl)-pyrimidin-2-ylamino]-3-methyl-phenol], for which the IC50 at CDK5/p35 was greater than 10000 nM; at Aurora B it was greater than 10000 nM; at Aurora A, greater than 10000 nM; on CDK9T1, greater than 10000 nM; at CDK2/cyclinA, 411 nM; on CDK1/cyclinB, 8950 nM.

On to `CCn1cc(-c2ccnc(Nc3cccc(O)c3)n2)c2ccccc21` [Compound 7, 3-[4-(1-Ethyl-1H-indol-3-yl)-pyrimidin-2-ylamino]-phenol], for which the IC50 on CDK5/p35 is 375 nM; at Aurora B, 1010 nM; on Aurora A, 5840 nM; at CDK9T1, 29 nM; at CDK2/cyclinA it was 2 nM; at CDK1/cyclinB, 1340 nM.

In the case of `CCn1cc(-c2ccnc(Nc3ccc(O)cc3)n2)c2ccnc(Cl)c21` [Compound 70, 4-(4-(7-Chloro-1-ethyl-1H-pyrrolo[2,3-c]pyridin-3-yl)pyrimidin-2-ylamino)phenol], the IC50 at CDK5/p35 was 350 nM; on Aurora B, greater than 10000 nM; on Aurora A, 2460 nM; at CDK9T1 it was 95 nM; at CDK2/cyclinA, 16 nM; on CDK1/cyclinB, 190 nM.

As to `Cc1cc(O)cc(C)c1Nc1nccc(-c2cn(C)c3ccccc23)n1` [Compound 5, 3,5-Dimethyl-4-[4-(1-methyl-1H-indol-3-yl)-pyrimidin-2-ylamino]-phenol], the IC50 at CDK5/p35 was greater than 10000 nM; on Aurora B it was greater than 10000 nM; on Aurora A it was greater than 10000 nM; on CDK2/cyclinA, no less than 100000 nM; on CDK1/cyclinB, greater than 10000 nM.

For `Cc1cc(O)ccc1Nc1nccc(-c2cn(C)c3ccccc23)n1` [Compound 4, 3-Methyl-4-[4-(1-methyl-1H-indol-3-yl)-pyrimidin-2-ylamino]-phenol], the IC50 on CDK5/p35 is greater than 10000 nM; on Aurora B, greater than 10000 nM; at Aurora A it was greater than 10000 nM; at CDK2/cyclinA, 1770 nM; at CDK1/cyclinB, greater than 10000 nM.

For the compound `CCn1cc(-c2ccnc(Nc3cccc(O)c3)n2)c2ccnc(Cl)c21` [Compound 72, 3-(4-(7-Chloro-1-ethyl-1H-pyrrolo[2,3-c]pyridin-3-yl)pyrimidin-2-ylamino)phenol], the IC50 on CDK5/p35 is 100 nM; at Aurora B, 930 nM; at Aurora A it was 800 nM; at CDK9T1 it was 79 nM; on CDK2/cyclinA, 4.3 nM; at CDK1/cyclinB, 90 nM.

For `Cn1cc(-c2ccnc(Nc3ccc(O)cc3Cl)n2)c2ccccc21` [Compound 3, 3-Chloro-4-(4-(1-methyl-1H-indol-3-yl)pyrimidin-2-ylamino)phenol], the IC50 at CDK5/p35 is greater than 10000 nM; at Aurora B, greater than 10000 nM; on Aurora A, greater than 10000 nM; on CDK9T1 it was greater than 10000 nM; on CDK2/cyclinA, 7530 nM; on CDK1/cyclinB, greater than 10000 nM.

For the compound `CCn1cc(-c2ccnc(Nc3cccc([N+](=O)[O-])c3)n2)c2cccnc21` [Compound 14, 4-(1-Ethyl-1H-pyrrolo[2,3-b]pyridin-3-yl)-N-(3-nitrophenyl)pyrimidin-2-amine], the IC50 on CDK5/p35 is greater than 10000 nM; at Aurora B, greater than 10000 nM; on Aurora A it was 1340 nM; on CDK9T1 it was 790 nM; on CDK2/cyclinA, 1070 nM; on CDK1/cyclinB it was greater than 10000 nM.

On to `CCn1cc(-c2ccnc(Nc3ccc(O)cc3)n2)c2ccccc21` [Compound 6, 4-[4-(1-Ethyl-1H-indol-3-yl)-pyrimidin-2-ylamino]-phenol], for which the IC50 at CDK5/p35 stood at 522 nM; at Aurora B, 470 nM; on Aurora A, 1050 nM; on CDK9T1, 26 nM; on CDK2/cyclinA it was 3 nM; on CDK1/cyclinB, 1210 nM.

For `CCn1cc(-c2ccnc(Nc3ccc(O)cc3)n2)c2cccnc21` [Compound 12, 4-(4-(1-Ethyl-1H-pyrrolo[2,3-b]pyridin-3-yl)pyrimidin-2-ylamino)phenol], the IC50 at CDK5/p35 is 5540 nM; on Aurora B, 750 nM; on Aurora A, 270 nM; at CDK9T1, greater than 10000 nM; on CDK2/cyclinA it was 172 nM; on CDK1/cyclinB it was 4110 nM.

In the case of `Oc1cccc(Nc2nccc(-c3cn(Cc4ccccc4)c4ccccc34)n2)c1` [Compound 11, 3-[4-(1-Benzyl-1H-indol-3-yl)-pyrimidin-2-ylamino]-phenol], the IC50 at CDK5/p35 was greater than 10000 nM; at Aurora B, greater than 10000 nM; on Aurora A, 4670 nM; on CDK9T1, 1170 nM; at CDK2/cyclinA it was 4050 nM; at CDK1/cyclinB, 4820 nM.

As for `CCCn1cc(-c2ccnc(Nc3cccc(C(=O)N4CCN(C)CC4)c3)n2)c2cccnc21` [Compound 34, (4-Methylpiperazin-1-yl)(3-(4-(1-propyl-1H-pyrrolo[2,3-b]pyridin-3-yl)pyrimidin-2-ylamino)phenyl)methanone], the IC50 at CDK5/p35 is 620 nM; at Aurora B, greater than 10000 nM; at Aurora A, greater than 10000 nM; on CDK9T1 it was 350 nM; on CDK2/cyclinA it was 1340 nM; on CDK1/cyclinB it was 1570 nM.

Turning to `CCn1cc(-c2ccnc(Nc3c(C)cc(O)cc3C)n2)c2ccccc21` [Compound 9, 4-[4-(1-Ethyl-1H-indol-3-yl)-pyrimidin-2-ylamino]-3,5-dimethyl-phenol], the IC50 is greater than 10000 nM on CDK5/p35; greater than 10000 nM on Aurora B; greater than 10000 nM on Aurora A; greater than 10000 nM on CDK9T1; greater than 100000 nM at CDK2/cyclinA; greater than 10000 nM at CDK1/cyclinB.

Turning to `CCCn1cc(-c2ccnc(Nc3ccc(S(N)(=O)=O)cc3)n2)c2cccnc21` [Compound 23, 4-(4-(1-Propyl-1H-pyrrolo[2,3-b]pyridin-3-yl)pyrimidin-2-ylamino)benzenesulfonamide], the IC50 on CDK5/p35 stood at 100 nM; on Aurora B it was 5800 nM; on Aurora A, 4900 nM; at CDK9T1 it was 52 nM; on CDK2/cyclinA it was 10 nM; on CDK1/cyclinB, 30 nM.

`CCn1cc(-c2ccnc(Nc3cccc(O)c3)n2)c2cccnc21` [Compound 13, 3-(4-(1-Ethyl-1H-pyrrolo[2,3-b]pyridin-3-yl)pyrimidin-2-ylamino)phenol]: the IC50 on CDK5/p35 was 1960 nM; on Aurora B it was 2050 nM; on Aurora A, 710 nM; on CDK9T1, 450 nM; at CDK2/cyclinA it was 61 nM; at CDK1/cyclinB it was 1180 nM.

For the compound `Oc1ccc(Nc2nccc(-c3cn(Cc4ccccc4)c4ccccc34)n2)cc1` [Compound 10, 4-[4-(1-Benzyl-1H-indol-3-yl)-pyrimidin-2-ylamino]-phenol], the IC50 on CDK5/p35 came to 4370 nM; on Aurora A it was 4220 nM; on CDK9T1, 670 nM; at CDK2/cyclinA it was 1170 nM; at CDK1/cyclinB it was 2360 nM.
